pIC50: −log10 of the molar value.
Test system: 186277-243-T-J2-PDC multi-cell spheroid viability
Experiment: Anticancer human tumor 186277-243-T-J2-PDC patient-derived colon adenocarcinoma cell line growth inhibition [PI3K]
Conditions: for pIC50: curve of first compound; for viability, T/C: stronger effect = lower value
How it was run: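 Tumor cells were combined with HUVEC and MSCs into spheroids, then dosed with PI3K-inhibitor combinations over half-log ranges capped near clinical Cmax or 10 microM.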

[1] = second compound 0.0316 µM, first compound 0.0316 µM
[2] = second compound 0.0316 µM, first compound 0.1 µM
[3] = second compound 0.0316 µM, first compound 0.316 µM
[4] = second compound 0.0316 µM, first compound 1 µM
[5] = second compound 0.0316 µM, first compound 3.16 µM
[6] = second compound 0.0316 µM, first compound 10 µM
[7] = second compound 0.1 µM, first compound 0.0316 µM
[8] = second compound 0.1 µM, first compound 0.1 µM
[9] = second compound 0.1 µM, first compound 0.316 µM
[10] = second compound 0.1 µM, first compound 1 µM
[11] = second compound 0.1 µM, first compound 3.16 µM
[12] = second compound 0.1 µM, first compound 10 µM
[13] = second compound 0.316 µM, first compound 0.0316 µM
[14] = second compound 0.316 µM, first compound 0.1 µM
[15] = second compound 0.316 µM, first compound 0.316 µM
[16] = second compound 0.316 µM, first compound 1 µM
[17] = second compound 0.316 µM, first compound 3.16 µM
[18] = second compound 0.316 µM, first compound 10 µM
[19] = second compound 1 µM, first compound 0.0316 µM
[20] = second compound 1 µM, first compound 0.1 µM
[21] = second compound 1 µM, first compound 0.316 µM
[22] = second compound 1 µM, first compound 1 µM
[23] = second compound 1 µM, first compound 3.16 µM
[24] = second compound 1 µM, first compound 10 µM
[25] = second compound 3.16 µM, first compound 0.0316 µM
[26] = second compound 3.16 µM, first compound 0.1 µM
[27] = second compound 3.16 µM, first compound 0.316 µM
[28] = second compound 3.16 µM, first compound 1 µM
[29] = second compound 3.16 µM, first compound 3.16 µM
[30] = second compound 3.16 µM, first compound 10 µM
[31] = second compound 10 µM, first compound 0.0316 µM
[32] = second compound 10 µM, first compound 0.1 µM
[33] = second compound 10 µM, first compound 0.316 µM
[34] = second compound 10 µM, first compound 1 µM
[35] = second compound 10 µM, first compound 3.16 µM
[36] = second compound 10 µM, first compound 10 µM
[37] = second compound 0.0316 µM, first compound 0.00316 µM
[38] = second compound 0.0316 µM, first compound 0.01 µM
[39] = second compound 0.1 µM, first compound 0.00316 µM
[40] = second compound 0.1 µM, first compound 0.01 µM
[41] = second compound 0.316 µM, first compound 0.00316 µM
[42] = second compound 0.316 µM, first compound 0.01 µM
[43] = second compound 1 µM, first compound 0.00316 µM
[44] = second compound 1 µM, first compound 0.01 µM
[45] = second compound 3.16 µM, first compound 0.00316 µM
[46] = second compound 3.16 µM, first compound 0.01 µM
[47] = second compound 10 µM, first compound 0.00316 µM
[48] = second compound 10 µM, first compound 0.01 µM
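Further: spheroids exposed to compounds for seven days before viability reading.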
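Wherever viability, T/C is given: 100% = DMSO vehicle control viability.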

CC(C)NCC(C(=O)N1CCN(c2ncnc3c2C(C)CC3O)CC1)c1ccc(Cl)cc1 (stereo not given) + CC(Nc1ncnc2nc[nH]c12)c1cc2cccc(Cl)c2c(=O)n1-c1ccccc1
pIC50 (second compound 0.0316 µM): 5.64 | pIC50 (second compound 0.1 µM): 5.97 | pIC50 (second compound 0.316 µM): 5.95 | pIC50 (second compound 1 µM): 6.09 | pIC50 (second compound 3.16 µM): 6.27 | pIC50 (second compound 10 µM): 6.33 | viability, T/C [1]: 90.7% | viability, T/C [2]: 78.6% | viability, T/C [3]: 80.1% | viability, T/C [4]: 60.4% | viability, T/C [5]: 45.4% | viability, T/C [6]: 31.2% | viability, T/C [7]: 82.5% | viability, T/C [8]: 94% | viability, T/C [9]: 70.5% | viability, T/C [10]: 50% | viability, T/C [11]: 40.1% | viability, T/C [12]: 28.2% | viability, T/C [13]: 85.6% | viability, T/C [14]: 92.2% | viability, T/C [15]: 68.8% | viability, T/C [16]: 48.9% | viability, T/C [17]: 42.5% | viability, T/C [18]: 26.3% | viability, T/C [19]: 96.7% | viability, T/C [20]: 77.5% | viability, T/C [21]: 63.8% | viability, T/C [22]: 49.6% | viability, T/C [23]: 30% | viability, T/C [24]: 23% | viability, T/C [25]: 96.5% | viability, T/C [26]: 92.8% | viability, T/C [27]: 58.7% | viability, T/C [28]: 36.8% | viability, T/C [29]: 30.9% | viability, T/C [30]: 17.6% | viability, T/C [31]: 77.3% | viability, T/C [32]: 78.8% | viability, T/C [33]: 54.2% | viability, T/C [34]: 36.3% | viability, T/C [35]: 21.4% | viability, T/C [36]: 14.4%

CCN1CCN(Cc2ccc(Nc3ncc(F)c(-c4cc(F)c5nc(C)n(C(C)C)c5c4)n3)nc2)CC1 + CC(Nc1ncnc2nc[nH]c12)c1cc2cccc(Cl)c2c(=O)n1-c1ccccc1
pIC50 (second compound 0.0316 µM): < 6.00 | pIC50 (second compound 0.1 µM): < 6.00 | pIC50 (second compound 0.316 µM): < 6.00 | pIC50 (second compound 1 µM): < 6.00 | pIC50 (second compound 3.16 µM): < 6.00 | pIC50 (second compound 10 µM): < 6.00 | viability, T/C [37]: 94.6% | viability, T/C [38]: 85.9% | viability, T/C [1]: 104% | viability, T/C [2]: 108% | viability, T/C [3]: 166% | viability, T/C [4]: 160% | viability, T/C [39]: 98.9% | viability, T/C [40]: 84% | viability, T/C [7]: 103% | viability, T/C [8]: 120% | viability, T/C [9]: 148% | viability, T/C [10]: 148% | viability, T/C [41]: 93.5% | viability, T/C [42]: 97.6% | viability, T/C [13]: 100% | viability, T/C [14]: 124% | viability, T/C [15]: 136% | viability, T/C [16]: 143% | viability, T/C [43]: 104% | viability, T/C [44]: 99.4% | viability, T/C [19]: 104% | viability, T/C [20]: 120% | viability, T/C [21]: 155% | viability, T/C [22]: 129% | viability, T/C [45]: 102% | viability, T/C [46]: 107% | viability, T/C [25]: 100% | viability, T/C [26]: 119% | viability, T/C [27]: 124% | viability, T/C [28]: 108% | viability, T/C [47]: 78.3% | viability, T/C [48]: 88% | viability, T/C [31]: 95.9% | viability, T/C [32]: 97.7% | viability, T/C [33]: 102% | viability, T/C [34]: 78.3%

C[C@@H](NC(=O)c1ncnc(N)c1Cl)c1ncc(C(=O)Nc2cc(C(F)(F)F)c(Cl)cn2)s1 + CC(Nc1ncnc2nc[nH]c12)c1cc2cccc(Cl)c2c(=O)n1-c1ccccc1
pIC50 (second compound 0.0316 µM): < 5.00 | pIC50 (second compound 0.1 µM): < 5.00 | pIC50 (second compound 0.316 µM): < 5.00 | pIC50 (second compound 1 µM): < 5.00 | pIC50 (second compound 3.16 µM): < 5.00 | pIC50 (second compound 10 µM): 5.21 | viability, T/C [1]: 92.6% | viability, T/C [2]: 89.9% | viability, T/C [3]: 93.7% | viability, T/C [4]: 83.4% | viability, T/C [5]: 105% | viability, T/C [6]: 79.1% | viability, T/C [7]: 84.3% | viability, T/C [8]: 87.2% | viability, T/C [9]: 90.1% | viability, T/C [10]: 105% | viability, T/C [11]: 108% | viability, T/C [12]: 88% | viability, T/C [13]: 94.5% | viability, T/C [14]: 107% | viability, T/C [15]: 94.3% | viability, T/C [16]: 95% | viability, T/C [17]: 105% | viability, T/C [18]: 80.5% | viability, T/C [19]: 88.1% | viability, T/C [20]: 105% | viability, T/C [21]: 96.7% | viability, T/C [22]: 91% | viability, T/C [23]: 102% | viability, T/C [24]: 61.9% | viability, T/C [25]: 107% | viability, T/C [26]: 97.2% | viability, T/C [27]: 104% | viability, T/C [28]: 99.3% | viability, T/C [29]: 93.3% | viability, T/C [30]: 66.4% | viability, T/C [31]: 84.8% | viability, T/C [32]: 91.7% | viability, T/C [33]: 107% | viability, T/C [34]: 95.5% | viability, T/C [35]: 72.8% | viability, T/C [36]: 33.5%

Cn1ncc(Cl)c1-c1cc(C(=O)NC(CN)Cc2cccc(F)c2)sc1Cl (stereo not given) + CC(Nc1ncnc2nc[nH]c12)c1cc2cccc(Cl)c2c(=O)n1-c1ccccc1
pIC50 (second compound 0.0316 µM): 5.82 | pIC50 (second compound 0.1 µM): 5.88 | pIC50 (second compound 0.316 µM): 5.97 | pIC50 (second compound 1 µM): 6.29 | pIC50 (second compound 3.16 µM): 6.52 | pIC50 (second compound 10 µM): 6.74 | viability, T/C [1]: 82.5% | viability, T/C [2]: 83.6% | viability, T/C [3]: 55.5% | viability, T/C [4]: 56.8% | viability, T/C [5]: 46.1% | viability, T/C [6]: 15.4% | viability, T/C [7]: 84.1% | viability, T/C [8]: 90.4% | viability, T/C [9]: 54.2% | viability, T/C [10]: 56.1% | viability, T/C [11]: 44.3% | viability, T/C [12]: 17.5% | viability, T/C [13]: 99.9% | viability, T/C [14]: 86.9% | viability, T/C [15]: 60.9% | viability, T/C [16]: 48.8% | viability, T/C [17]: 44.6% | viability, T/C [18]: 16.1% | viability, T/C [19]: 97.4% | viability, T/C [20]: 78.3% | viability, T/C [21]: 48% | viability, T/C [22]: 43.1% | viability, T/C [23]: 37.1% | viability, T/C [24]: 13.1% | viability, T/C [25]: 83.8% | viability, T/C [26]: 70.6% | viability, T/C [27]: 45% | viability, T/C [28]: 31.8% | viability, T/C [29]: 25.6% | viability, T/C [30]: 5.44% | viability, T/C [31]: 85.1% | viability, T/C [32]: 60.3% | viability, T/C [33]: 39.3% | viability, T/C [34]: 25% | viability, T/C [35]: 18.7% | viability, T/C [36]: 3.49%

Cn1ncnc1[C@H]1c2n[nH]c(=O)c3cc(F)cc(c23)N[C@@H]1c1ccc(F)cc1 + CC(Nc1ncnc2nc[nH]c12)c1cc2cccc(Cl)c2c(=O)n1-c1ccccc1
pIC50 (second compound 0.0316 µM): < 7.00 | pIC50 (second compound 0.1 µM): < 7.00 | pIC50 (second compound 0.316 µM): < 7.00 | pIC50 (second compound 1 µM): < 7.00 | pIC50 (second compound 3.16 µM): < 7.00 | pIC50 (second compound 10 µM): < 7.00 | viability, T/C (second compound 0.0316 µM, first compound 0.000316 µM): 88.3% | viability, T/C (second compound 0.0316 µM, first compound 0.001 µM): 94.7% | viability, T/C [37]: 86.8% | viability, T/C [38]: 100% | viability, T/C [1]: 104% | viability, T/C [2]: 88.9% | viability, T/C (second compound 0.1 µM, first compound 0.000316 µM): 93.2% | viability, T/C (second compound 0.1 µM, first compound 0.001 µM): 111% | viability, T/C [39]: 94.9% | viability, T/C [40]: 103% | viability, T/C [7]: 99.9% | viability, T/C [8]: 99.3% | viability, T/C (second compound 0.316 µM, first compound 0.000316 µM): 93.5% | viability, T/C (second compound 0.316 µM, first compound 0.001 µM): 107% | viability, T/C [41]: 96.1% | viability, T/C [42]: 92.5% | viability, T/C [13]: 91.3% | viability, T/C [14]: 85% | viability, T/C (second compound 1 µM, first compound 0.000316 µM): 89.3% | viability, T/C (second compound 1 µM, first compound 0.001 µM): 95.5% | viability, T/C [43]: 114% | viability, T/C [44]: 97.4% | viability, T/C [19]: 87% | viability, T/C [20]: 84.4% | viability, T/C (second compound 3.16 µM, first compound 0.000316 µM): 108% | viability, T/C (second compound 3.16 µM, first compound 0.001 µM): 107% | viability, T/C [45]: 102% | viability, T/C [46]: 84.5% | viability, T/C [25]: 101% | viability, T/C [26]: 99.1% | viability, T/C (second compound 10 µM, first compound 0.000316 µM): 99.6% | viability, T/C (second compound 10 µM, first compound 0.001 µM): 90.6% | viability, T/C [47]: 84.4% | viability, T/C [48]: 86% | viability, T/C [31]: 88.6% | viability, T/C [32]: 85%
